Measured values reported in patent US20260356849A1, “COMPOUNDS AND METHODS FOR TREATING CANCERS” (CEDARS-SINAI MEDICAL CENTER, priority 2022, published 2026).
pIC50, pKd: −log10 of the molar value. Entries after “also recorded” stand apart in the source; their conditions may differ.

Experiments:
[1] = target: GIT1-GFP (Homo sapiens, UniProt Q9Y2X7); experiment: MST binding to GIT1-GFP
[2] = target: GIT2-GFP (Homo sapiens, UniProt Q14161); experiment: MST binding to GIT2-GFP
[3] = tested on: RKO cells; experiment: MTT assay in RKO cells; format: cell-based; settings: Homo sapiens
Protocol: (§1) The inventors identified nine inhibitors and perfomed an EdU assay after treating non-malignant (HEK293, AML12) and malignant (HepG2, MzChA-1, HT-29, RKO) cells with varying concentrations of GIT1 inhibitor for 24 hours (results are mean±SE from 3 independent experiments done in duplicates, *p<0.05 vs. DMSO). An MTT assay was also performed after treating primary human and mouse hepatocytes and liver and colon cancer cells with varying concentrations of GIT1 inhibitor for 24 hours (results are mean±SE from 3 independent experiments done in duplicates, *p<0.05 vs. DMSO). […] Percoll may be used to remove dead human hepatocytes.

[4] = tested on: non-malignant (HEK293, AML12) cells; experiment: EdU/MTT growth assay in non-malignant cells; format: cell-based; settings: 10 μM, 24 hours
Protocol: as §1

[5] = tested on: HepG2 cells; experiment: Cell cycle flow cytometry HepG2; format: cell-based; settings: 1-5 μM, 24 hours
[6] = tested on: RKO cells; experiment: Cell cycle flow cytometry RKO; format: cell-based, human; settings: 1-5 μM, 24 hours
[7] = tested on: HEK293 cells; experiment: Cell cycle flow cytometry HEK293; format: cell-based; settings: 1-5 μM, 24 hours
[8] = tested on: RKO cells; experiment: Annexin V-FITC/propidium iodide assay RKO; format: cell-based, human; settings: 5 μM, 24-48 hours
Protocol: (§2) FIG. 8 depicts, in accordance with various embodiments of the invention, results of an annexin V-FITC/propidium iodide binding assay performed in human and mouse hepatocytes, AML12, HEK293, HepG2, and RKO cells after treatment with 5 μM of a GIT1 inhibitor or DMSO for 24-48 hours (results are shown as mean±SE from at least 3 experiments. *p<0.05 vs. DMSO).
(§3) An annexin V-FITC/propidium iodide (PI) binding assay was performed with flow cytometry. […] Both G2/M arrest and cell death are mechanisms by which compound C3 inhibits cancer cells' growth.

[9] = tested on: HepG2 cells; experiment: Annexin V-FITC/propidium iodide assay HepG2; format: cell-based; settings: 5 μM, 24-48 hours
Protocol: as §2, §3

[10] = tested on: human hepatocytes; experiment: Annexin V-FITC/propidium iodide assay human hepatocytes; format: cell-based; settings: 5 μM, 24-48 hours
Protocol: as §2, §3

[11] = tested on: mouse hepatocytes; experiment: Annexin V-FITC/propidium iodide assay mouse hepatocytes; format: cell-based; settings: 5 μM, 24-48 hours
Protocol: as §2, §3

[12] = tested on: AML12 cells; experiment: Annexin V-FITC/propidium iodide assay AML12; format: cell-based; settings: 5 μM, 24-48 hours
Protocol: as §2, §3

[13] = tested on: HEK293 cells; experiment: Annexin V-FITC/propidium iodide assay HEK293; format: cell-based; settings: 5 μM, 24-48 hours
Protocol: as §2, §3

[14] = tested on: RKO cells; experiment: Clonogenic assay RKO; format: cell-based, human; settings: 1 μM, 24 hours then drug free medium 10-20 days; dose dependent
Protocol: (§4) RKO, HepG2, and AML12 cells were treated with 1-10 μM compound C3 for 24 hours and maintained in drug free medium for 10-20 days.

[15] = tested on: HepG2 cells; experiment: Clonogenic assay HepG2; format: cell-based; settings: 1 μM, 24 hours then drug free medium 10-20 days; dose dependent
Protocol: as §4

[16] = tested on: AML12 cells; experiment: Clonogenic assay AML12; format: cell-based; settings: 1-10 μM, 24 hours then drug free medium 10-20 days
Protocol: as §4

[17] = target: GIT1-MAT2B (Homo sapiens, UniProt Q9Y2X7); experiment: Co-IP MAT2B-GIT1 interaction in HepG2 cells; format: cell-based; settings: HepG2, 10 μM, 24 hours
Sequence of GIT1-MAT2B (Q9Y2X7 whole entry): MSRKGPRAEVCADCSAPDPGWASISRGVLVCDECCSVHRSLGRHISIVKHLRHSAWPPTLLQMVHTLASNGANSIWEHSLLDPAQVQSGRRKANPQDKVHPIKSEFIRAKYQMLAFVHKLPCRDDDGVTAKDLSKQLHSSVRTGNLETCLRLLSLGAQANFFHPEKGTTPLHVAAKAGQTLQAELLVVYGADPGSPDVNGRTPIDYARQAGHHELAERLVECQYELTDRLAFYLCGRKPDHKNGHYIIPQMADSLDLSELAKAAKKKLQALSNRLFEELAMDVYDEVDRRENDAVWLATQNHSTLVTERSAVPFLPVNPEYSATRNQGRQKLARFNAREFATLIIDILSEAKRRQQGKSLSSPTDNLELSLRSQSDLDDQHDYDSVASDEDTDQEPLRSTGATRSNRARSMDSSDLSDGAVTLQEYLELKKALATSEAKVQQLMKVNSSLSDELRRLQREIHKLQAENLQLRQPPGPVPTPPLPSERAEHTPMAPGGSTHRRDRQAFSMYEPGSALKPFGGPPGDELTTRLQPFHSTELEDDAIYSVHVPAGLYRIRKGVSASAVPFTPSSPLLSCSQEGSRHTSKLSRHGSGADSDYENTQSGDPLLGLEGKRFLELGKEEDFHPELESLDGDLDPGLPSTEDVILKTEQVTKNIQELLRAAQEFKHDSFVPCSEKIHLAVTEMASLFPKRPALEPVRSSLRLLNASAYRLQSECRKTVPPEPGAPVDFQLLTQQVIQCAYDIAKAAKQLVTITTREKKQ
Excerpt: (§5) GIT1-MAT2B scaffold complex sequesters and activates RAS/RAF/MEK/ERK signaling.

[18] = tested on: MEK1/2 interaction with GIT1, Raf, and ERK; experiment: Co-IP anti-MEK1/2 in HepG2 and RKO cells; format: cell-based; settings: 10 μM, 24 hours
Excerpt: as §5

[19] = tested on: MEK and ERK activity; experiment: Western blot ERK and MEK activity in HepG2 cells; format: cell-based; settings: 2-10 μM, 24 hours
Protocol: (§6) Treatment of human hepatocytes with 10 μM compound C3 had no effect on MEK or ERK activity.

[20] = tested on: MEK and ERK activity; experiment: Western blot ERK and MEK activity in MC38 cells; format: cell-based; settings: 10 μM, 24 hours
[21] = tested on: MEK and ERK activity; experiment: Western blot ERK and MEK activity in RKO cells; format: cell-based, human; settings: 2-10 μM, 24 hours
[22] = tested on: MEK and ERK activity; experiment: MEK and ERK activity in human hepatocytes; format: cell-based; settings: 10 μM
Protocol: as §6

[23] = tested on: Cyclin D1; experiment: Cyclin D1 protein level in cancer cells; format: cell-based; settings: 10 μM, 24 hours
[24] = tested on: CyclinB1; experiment: Cyclin B1 expression by RT-PCR, Western blotting and CHX in HepG2; format: cell-based
Protocol: HepG2 cells were treated with DMSO or compound C3 (2-5 μM) for 24 hours. […] Numbers shown below are mean±SE densitometric values.

[25] = tested on: M2 macrophages (CD206+); experiment: Flow cytometry of macrophages in CRLM tumors; format: in vivo, mice
Excerpt: Liver tumors from CRLM model in syngeneic mice were processed for flow cytometry. […] In this subgroup, CD206+ was used to identify M2 macrophages.

[26] = tested on: CRC organoids from AKPS mice; experiment: EdU assay of CRC organoids; format: cell-based; settings: "10M", 24 hours
Protocol: An EdU assay of CRC organoids from AKPS mice (APCF/Fp53F/FKRAS+SMAD4KOCDX2ERT+) was treated with […] of compound C3 for 24 hours.

[27] = Toxicity in C57/BL6 mice; settings: mouse, in vivo

Sequence of GIT1-GFP (Q9Y2X7 1-770 isoform Q9Y2X7-3): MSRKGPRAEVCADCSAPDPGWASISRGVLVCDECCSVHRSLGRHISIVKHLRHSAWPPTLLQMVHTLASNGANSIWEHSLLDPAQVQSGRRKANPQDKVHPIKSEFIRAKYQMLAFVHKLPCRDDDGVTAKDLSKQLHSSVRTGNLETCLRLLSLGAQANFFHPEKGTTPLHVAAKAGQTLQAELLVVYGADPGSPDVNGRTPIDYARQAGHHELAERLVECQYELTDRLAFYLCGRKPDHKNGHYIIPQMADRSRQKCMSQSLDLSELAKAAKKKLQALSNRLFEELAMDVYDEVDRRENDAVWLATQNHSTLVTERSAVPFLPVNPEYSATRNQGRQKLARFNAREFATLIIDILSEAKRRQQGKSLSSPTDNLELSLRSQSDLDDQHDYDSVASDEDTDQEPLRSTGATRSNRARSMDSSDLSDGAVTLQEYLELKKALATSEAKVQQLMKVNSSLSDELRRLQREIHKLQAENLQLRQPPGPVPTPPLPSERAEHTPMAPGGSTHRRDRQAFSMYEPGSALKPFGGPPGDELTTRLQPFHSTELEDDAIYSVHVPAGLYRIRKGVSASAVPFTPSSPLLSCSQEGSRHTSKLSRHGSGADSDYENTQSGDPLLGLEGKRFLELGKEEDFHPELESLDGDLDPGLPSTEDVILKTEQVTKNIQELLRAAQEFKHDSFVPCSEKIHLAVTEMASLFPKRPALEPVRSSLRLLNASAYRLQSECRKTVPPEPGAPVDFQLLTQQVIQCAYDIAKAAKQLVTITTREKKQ
Sequence of GIT2-GFP (Q14161 whole entry): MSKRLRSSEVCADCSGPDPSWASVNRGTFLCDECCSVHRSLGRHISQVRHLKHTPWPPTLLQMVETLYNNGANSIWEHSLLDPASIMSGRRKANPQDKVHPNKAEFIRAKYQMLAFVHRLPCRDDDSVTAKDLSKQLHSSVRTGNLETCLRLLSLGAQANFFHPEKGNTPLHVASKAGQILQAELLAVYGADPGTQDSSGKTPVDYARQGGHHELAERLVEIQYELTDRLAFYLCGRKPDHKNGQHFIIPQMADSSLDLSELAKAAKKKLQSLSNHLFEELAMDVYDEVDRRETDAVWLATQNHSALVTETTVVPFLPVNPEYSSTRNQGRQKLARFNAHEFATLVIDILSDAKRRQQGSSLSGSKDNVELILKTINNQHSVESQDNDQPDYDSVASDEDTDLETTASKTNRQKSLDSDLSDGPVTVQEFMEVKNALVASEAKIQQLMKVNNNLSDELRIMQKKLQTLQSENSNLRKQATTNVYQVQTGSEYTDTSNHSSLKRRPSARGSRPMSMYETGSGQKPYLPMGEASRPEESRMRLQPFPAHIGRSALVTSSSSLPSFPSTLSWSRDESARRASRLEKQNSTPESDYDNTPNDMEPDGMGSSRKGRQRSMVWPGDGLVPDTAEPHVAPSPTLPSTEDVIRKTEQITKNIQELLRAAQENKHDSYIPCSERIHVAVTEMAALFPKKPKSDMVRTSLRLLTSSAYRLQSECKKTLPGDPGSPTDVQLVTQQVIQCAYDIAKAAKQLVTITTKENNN

CC1(C)Cc2nc3sc4c(=O)n(CC(=O)NCc5ccco5)cnc4c3cc2CO1 [Compound C3, 2-(8,8-Dimethyl-4-oxo-7,10-dihydro-8H-pyrano[3″,4″: 5′,6′]pyrido[3′,2′: 4,5]thieno[3,2-d]pyrimidin-3 (4H)-yl)-N-(2-furylmethyl) acetamide]
pKd [1]: 5.21
binding to GIT1-GFP [1]: binds to GIT1-GFP
binding to GIT2-GFP [2]: not GIT2-GFP
pIC50 [3]: ~4.70
cytotoxicity in non-malignant cells [4]: not in non-malignant cells
G2/M phase, HepG2 [5]: G2/M phase was significantly increased
percentage of cells in G1 phase, HepG2 [5]: lowered the percentage of cells in G1 phase
G2/M phase, RKO [6]: G2/M phase was significantly increased
percentage of cells in G1 phase, RKO [6]: lowered the percentage of cells in G1 phase
G2/M arrest, HEK293 [7]: did not occur
apoptosis, RKO [8]: significant apoptosis
apoptosis, HepG2 [9]: significant apoptosis
necrosis, HepG2 [9]: significant necrosis
cell death, human hepatocytes [10]: does not induce cell death
cell death, mouse hepatocytes [11]: does not induce cell death
cell death, AML12 [12]: does not induce cell death
cell death, HEK293 [13]: does not induce cell death
clonogenic potential, RKO [14]: inhibited the clonogenic potential
clonogenic potential, HepG2 [15]: inhibited the clonogenic potential
clonogenic potential, AML12 [16]: no effect on clonogenic potential
GIT1-MAT2B scaffold formation [17]: disrupted GIT1-MAT2B scaffold formation
RAF/MEK/ERK recruitment [18]: reduced RAF/MEK/ERK recruitment
ERK and MEK activities, HepG2 [19]: lower
ERK and MEK activities, MC38 [20]: lower
ERK and MEK activities, RKO [21]: lower
MEK or ERK activity, human hepatocytes [22]: no effect
Cyclin D1 protein level, cancer cells [23]: lower in cancer cells
CyclinB1 content [24]: increases CyclinB1 content; also recorded: led to cyclin B1 accumulation
CyclinB1 mRNA level ([24]; HepG2, 2-5 μM, 24 hours): increases CyclinB1 mRNA level
CyclinB1 protein degradation ([24]; HepG2, cycloheximide, 5 μM): inhibits its protein degradation
CyclinB1 phosphorylation ([24]; associated with nuclear accumulation): promotes CyclinB1 phosphorylation
M2 macrophages in the tumors ([25]; CD206+, n=6 each group): dramatically reduced M2 macrophages
M1 and CD8+ T cells in the tumors ([25]; strong indication): raised MI and CD8+ T cells
CRC organoid appearance [26]: does not affect appearance
CRC organoid growth [26]: inhibits CRC organoids growth
toxicity in C57/BL6 mice [27]: no toxicity
